Settings: 323.15 K, Liquid, Vibrating tube method

CCCCC(=O)OCC(COC(=O)CCCC)(COC(=O)CCCC)COC(=O)CCCC [pentaerythritol tetrapentanoate]
Settings	mass density [kg/m3]
15928 kPa	1005.6
15948 kPa	1005.6
15968 kPa	1005.5
15988 kPa	1005.5
16012 kPa	1005.6
16032 kPa	1005.7
16056 kPa	1005.6
16076 kPa	1005.7
16096 kPa	1005.7
16116 kPa	1005.7
16141 kPa	1005.7
16161 kPa	1005.6
16185 kPa	1005.7
16205 kPa	1005.7
16227 kPa	1005.7
16252 kPa	1005.7
16273 kPa	1005.7
16293 kPa	1005.7
16318 kPa	1005.8
16339 kPa	1005.8
16360 kPa	1005.8
16385 kPa	1005.8
16406 kPa	1006
16427 kPa	1005.8
16453 kPa	1005.9
16474 kPa	1006
16495 kPa	1005.9
16521 kPa	1005.9
16542 kPa	1006
16564 kPa	1006
16586 kPa	1006
16612 kPa	1006
16634 kPa	1006.1
16660 kPa	1006.1
16681 kPa	1006
16704 kPa	1006.1
16730 kPa	1006.2
16752 kPa	1006.1
16774 kPa	1006.1
16800 kPa	1006.1
16823 kPa	1006.1
16845 kPa	1006.2
16872 kPa	1006.2
16894 kPa	1006.1
16917 kPa	1006.2
16944 kPa	1006.3
16967 kPa	1006.3
16990 kPa	1006.2
17017 kPa	1006.1
17040 kPa	1006.2
17063 kPa	1006.2
17090 kPa	1006.4
17114 kPa	1006.3
17138 kPa	1006.4
17161 kPa	1006.3
17189 kPa	1006.4
17212 kPa	1006.4
17236 kPa	1006.4
17264 kPa	1006.4
17288 kPa	1006.4
17312 kPa	1006.4
17335 kPa	1006.5
17364 kPa	1006.5
17388 kPa	1006.6
17412 kPa	1006.6
17441 kPa	1006.5
17467 kPa	1006.5
17491 kPa	1006.5
17520 kPa	1006.6
17544 kPa	1006.6
17568 kPa	1006.6
17593 kPa	1006.6
17623 kPa	1006.7
17647 kPa	1006.7
17672 kPa	1006.7
17702 kPa	1006.8
17726 kPa	1006.7
17756 kPa	1006.6
17781 kPa	1006.7
17807 kPa	1006.7
17832 kPa	1006.7
17862 kPa	1006.8
17887 kPa	1006.9
17913 kPa	1006.7
17944 kPa	1006.8
17969 kPa	1006.8
18000 kPa	1006.9
18025 kPa	1006.8
18051 kPa	1006.9
18077 kPa	1006.9
18108 kPa	1007
18134 kPa	1007
18161 kPa	1007.1
18192 kPa	1007
18218 kPa	1007
18249 kPa	1007.1
18276 kPa	1007.2
18303 kPa	1007.1
18329 kPa	1007.1
18361 kPa	1007.1
18388 kPa	1007.1
18415 kPa	1007.1
18447 kPa	1007.2
18475 kPa	1007.2
18502 kPa	1007.2
18530 kPa	1007.2
18563 kPa	1007.2
18590 kPa	1007.3
18618 kPa	1007.4
18651 kPa	1007.4
18679 kPa	1007.4
18707 kPa	1007.3
18740 kPa	1007.4
18768 kPa	1007.3
18797 kPa	1007.4
18831 kPa	1007.4
18859 kPa	1007.4
18888 kPa	1007.4
18917 kPa	1007.4
18952 kPa	1007.5
18980 kPa	1007.5
19014 kPa	1007.5
19043 kPa	1007.6
19072 kPa	1007.5
19101 kPa	1007.7
19136 kPa	1007.6
19166 kPa	1007.7
19196 kPa	1007.7
19232 kPa	1007.6
19262 kPa	1007.7
19292 kPa	1007.8
19322 kPa	1007.7
19388 kPa	1007.8
19515 kPa	1007.8
19552 kPa	1007.8
19582 kPa	1007.8
19613 kPa	1008
19650 kPa	1007.9
19682 kPa	1008
19716 kPa	1008
19747 kPa	1008.1
19778 kPa	1007.9
19817 kPa	1008
19848 kPa	1008
19887 kPa	1008
19919 kPa	1008
19952 kPa	1008.1
19992 kPa	1008.1
20023 kPa	1008.2
20052 kPa	1008.2
20085 kPa	1008.2
20113 kPa	1008.2
20143 kPa	1008.2
20171 kPa	1008.3
20199 kPa	1008.2
20232 kPa	1008.3
20260 kPa	1008.2
20288 kPa	1008.4
20321 kPa	1008.4
20349 kPa	1008.4

— the NIST ThermoML archive (doi:10.1021/je060271a)
